Here are results for 39 molecules from patent US8877707B2, “Inhibitors of HCV NS5A” (Presidio Pharmaceuticals, Inc., priority 2010, dated 2014).

In one assay the test system is HCV genotype 1b replicon in Huh 7 cells. Briefly: HCV replicon assay (1b_Huh-Luc/Neo-ET cell line, luciferase readout). The conditions noted are these: Hepatitis C virus, Huh-7; HCV 1b replicon; read-out: Inhibition of HCV genotype 1b. In kind it is cell-based. An outline of the steps:
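Huh 7 cells carrying a bicistronic genotype 1b luciferase replicon were treated with compound in triplicate the day after plating and incubated 72 h. Luciferase activity expressed as % of untreated control; EC50 from a four-parameter logistic fit, repeated several times.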
(In general: In antiviral work, replicon cells carry a viral genome segment that copies itself.)
For the molecule `COC(=O)N[C@H](C(=O)N1CCC[C@H]1c1ncc(-c2ccc(-c3ccc4cc(-c5cnc([C@@H]6CSCN6C(=O)[C@@H](NC(=O)OC)C(C)C)[nH]5)ccc4c3)cc2)[nH]1)C(C)C` [compound 451], the EC50 was less than 1 nM.

As for `COC(=O)N[C@H](C(=O)N1CCC[C@H]1c1ncc(-c2ccc3nc(-c4ccc(-c5cnc([C@@H]6CCCN6C(=O)[C@H](NC(=O)OC6CCOCC6)c6ccccc6)[nH]5)c(F)c4)ccc3c2)[nH]1)C(C)C` [compound 452], the EC50 was less than 1 nM.

In the case of `COC(=O)N[C@H](C(=O)N1CCC[C@H]1c1ncc(-c2ccc3nc(-c4ccc(-c5cnc([C@@H]6CCCN6C(=O)[C@H](NC(=O)OC)c6ccccc6)[nH]5)c(F)c4)ccc3c2)[nH]1)C(C)C` [compound 453], the EC50 is less than 1 nM.

On to `COC(=O)N[C@H](C(=O)N1CCC[C@H]1c1ncc(-c2ccc3nc(-c4ccc(-c5cnc([C@@H]6CCCN6C(=O)[C@@H](NC(=O)OC)C6CCOCC6)[nH]5)c(F)c4)ccc3c2)[nH]1)C(C)C` [compound 454], for which the EC50 was less than 1 nM.

For `COC(=O)N[C@H](C(=O)N1CCCC[C@H]1c1ncc(-c2ccc(-c3ccc4cc(-c5cnc([C@@H]6CCCN6C(=O)[C@@H](NC(=O)OC)C(C)C)[nH]5)ccc4n3)cc2)[nH]1)C(C)C` [compound 455], the EC50 was less than 1 nM.

Turning to `COC(=O)N[C@H](C(=O)N1CCCC[C@H]1c1ncc(-c2ccc(-c3ccc4cc(-c5cnc([C@@H]6CCCN6C(=O)[C@@H](NC(=O)OC)C6CCOCC6)[nH]5)ccc4n3)cc2)[nH]1)C1CCOCC1` [compound 456], the EC50 is less than 1 nM.

For the molecule `COC(=O)N[C@@H](C(=O)N1CCCC[C@H]1c1ncc(-c2ccc(-c3ccc4cc(-c5cnc([C@@H]6CCCN6C(=O)[C@H](NC(=O)OC)c6ccccc6)[nH]5)ccc4n3)cc2)[nH]1)c1ccccc1` [compound 457], the EC50 is less than 1 nM.

Turning to `O=C(N[C@@H](C(=O)N1CCCC[C@H]1c1ncc(-c2ccc(-c3ccc4cc(-c5cnc([C@@H]6CCCN6C(=O)[C@H](NC(=O)OC6CCOCC6)c6ccccc6)[nH]5)ccc4n3)cc2)[nH]1)c1ccccc1)OC1CCOCC1` [compound 458], the EC50 was less than 1 nM.

With `COC(=O)N[C@@H](C)C(=O)N1CCC[C@H]1c1ncc(-c2ccc3nc(-c4ccc(-c5cnc([C@@H]6CCCN6C(=O)[C@H](NC(=O)OC)c6ccccc6)[nH]5)c(F)c4)ccc3c2)[nH]1` [compound 459], the EC50 is less than 1 nM.

With `COC(=O)N[C@H](C(=O)N1CCC[C@H]1c1ncc(-c2ccc3nc(-c4ccc(-c5cnc([C@@H]6CCCN6C(=O)[C@H](NC(=O)OC)c6ccccc6)[nH]5)c(F)c4)ccc3c2)[nH]1)[C@@H](C)OC` [compound 460], the EC50 is less than 1 nM.

Regarding `COC(=O)N[C@H](C(=O)N1CCC[C@H]1c1ncc(-c2ccc3cc(-c4ccc(-c5cnc([C@@H]6CCCN6C(=O)[C@H](NC(=O)OC)c6ccccc6)[nH]5)nn4)ccc3c2)[nH]1)C(C)C` [compound 461], the EC50 is less than 1 nM.

For the molecule `COC[C@H](NC(=O)OC)C(=O)N1CCC[C@H]1c1ncc(-c2ccc3cc(-c4ccc(-c5cnc([C@@H]6COCCN6C(=O)[C@@H](NC(=O)OC)c6ccccc6)[nH]5)cc4)ccc3c2)[nH]1` [compound 462], the EC50 was less than 1 nM.

As to `COC[C@H](NC(=O)OC)C(=O)N1CCC[C@H]1c1ncc(-c2ccc(-c3ccc4cc(-c5cnc([C@@H]6CCCN6C(=O)[C@H](COC)NC(=O)OC)[nH]5)ccc4c3)cc2)[nH]1` [compound 463], the EC50 is less than 1 nM.

In the case of `COC(=O)N[C@@H](C)C(=O)N1CCC[C@H]1c1ncc(-c2ccc3cc(-c4ccc(-c5cnc([C@@H]6CCCN6C(=O)[C@H](NC(=O)OC)c6ccsc6)[nH]5)cc4)ccc3c2)[nH]1` [compound 464], the EC50 is less than 1 nM.

Still in this assay, the particulars now being: Hepatitis C virus; Table 2; genotype 1b replicon, Huh 7 cells, 72 h, luciferase; read-out: Inhibition of HCV genotype 1b.
For `COC(=O)N[C@H](C(=O)N1CCC[C@H]1c1ncc(-c2ccc3cc(-c4ccc5nc([C@@H]6CCCN6C(=O)[C@@H](NC(=O)OC)[C@@H](C)OC)[nH]c5c4)ncc3c2)[nH]1)[C@@H](C)OC` [compound 377], the EC50 is less than 1 nM.

Consider `COC(=O)N[C@H](C(=O)N1CCC[C@H]1c1ncc(-c2ccc3cc(-c4ccc5nc([C@@H]6CCCN6C(=O)[C@@H](NC(=O)OC)C6CCCCC6)[nH]c5c4)ncc3c2)[nH]1)C1CCCCC1` [compound 379], for which the EC50 is less than 1 nM.

For `COC(=O)N[C@H](C(=O)N1CCC[C@H]1c1ncc(-c2ccc3nc(-c4ccc5nc([C@@H]6CCCN6C(=O)[C@@H](NC(=O)OC)C6CCCC6)[nH]c5c4)ccc3c2)[nH]1)C1CCCC1` [compound 381], the EC50 is less than 1 nM.

On to `CCC(CC)[C@H](NC(=O)OC)C(=O)N1CCC[C@H]1c1ncc(-c2ccc3nc(-c4ccc5nc([C@@H]6CCCN6C(=O)[C@@H](NC(=O)OC)C(CC)CC)[nH]c5c4)ccc3c2)[nH]1` [compound 382], for which the EC50 is less than 1 nM.

Consider `CC[C@H](C)[C@H](NC(=O)OC)C(=O)N1CCC[C@H]1c1ncc(-c2ccc3nc(-c4ccc5nc([C@@H]6CCCN6C(=O)[C@@H](NC(=O)OC)[C@@H](C)CC)[nH]c5c4)ccc3c2)[nH]1` [compound 383], for which the EC50 is less than 1 nM.

As to `CC[C@@H](C)[C@H](NC(=O)OC)C(=O)N1CCC[C@H]1c1ncc(-c2ccc3nc(-c4ccc5nc([C@@H]6CCCN6C(=O)[C@@H](NC(=O)OC)[C@H](C)CC)[nH]c5c4)ccc3c2)[nH]1` [compound 384], the EC50 was less than 1 nM.

`COC(=O)N[C@H](C(=O)N1CCC[C@H]1c1ncc(-c2ccc3nc(-c4ccc5nc([C@@H]6CCCN6C(=O)[C@@H](NC(=O)OC)C6CC6)[nH]c5c4)ccc3c2)[nH]1)C1CC1` [compound 385]: the EC50 is less than 1 nM.

Take `COC(=O)N[C@H](C(=O)N1CCC[C@H]1c1ncc(-c2ccc3nc(-c4ccc5nc([C@@H]6CCCN6C(=O)[C@@H](NC(=O)OC)[C@@H](C)OC)[nH]c5c4)ccc3c2)[nH]1)[C@@H](C)OC` [compound 386]: the EC50 was less than 1 nM.

For `COC(=O)N[C@H](C(=O)N1CCC[C@H]1c1ncc(-c2ccc3nc(-c4ccc5nc([C@@H]6CCCN6C(=O)[C@@H](NC(=O)OC)C6CCCCC6)[nH]c5c4)ccc3c2)[nH]1)C1CCCCC1` [compound 388], the EC50 was less than 1 nM.

As for `COC(=O)N[C@H](C(=O)N1CCC[C@H]1c1ncc(-c2ccc3cc(-c4ccc5nc([C@@H]6CCCN6C(=O)[C@@H](NC(=O)OC)C(C)C)[nH]c5c4)nnc3c2)[nH]1)C(C)C` [compound 390], the EC50 is less than 1 nM.

Consider `COC(=O)N[C@H](C(=O)N1CCC[C@H]1c1ncc(-c2ccc3cc(-c4ccc5nc([C@@H]6CCCN6C(=O)[C@@H](NC(=O)OC)C6CCCC6)[nH]c5c4)nnc3c2)[nH]1)C1CCCC1` [compound 393], for which the EC50 is less than 1 nM.

In the case of `CC[C@@H](C)[C@H](NC(=O)OC)C(=O)N1CCC[C@H]1c1ncc(-c2ccc3cc(-c4ccc5nc([C@@H]6CCCN6C(=O)[C@@H](NC(=O)OC)[C@H](C)CC)[nH]c5c4)nnc3c2)[nH]1` [compound 396], the EC50 is less than 1 nM.

Consider `COC(=O)N[C@H](C(=O)N1CCC[C@H]1c1ncc(-c2ccc3cc(-c4ccc5nc([C@@H]6CCCN6C(=O)[C@@H](NC(=O)OC)C6CCCCC6)[nH]c5c4)nnc3c2)[nH]1)C1CCCCC1` [compound 400], for which the EC50 is less than 1 nM.

In the case of `COC(=O)N[C@H](C(=O)N1CCC[C@H]1c1ncc(-c2ccc3cc(-c4cnc5nc([C@@H]6CCCN6C(=O)[C@@H](NC(=O)OC)C(C)C)[nH]c5c4)ccc3c2)[nH]1)C(C)C` [compound 402], the EC50 was 1 to 9.9 nM.

As to `COC(=O)N[C@H](C(=O)N1CCC[C@H]1c1ncc(-c2ccc3cc(-c4cnc5nc([C@@H]6CCCN6C(=O)[C@@H](NC(=O)OC)C6CCCC6)[nH]c5c4)ccc3c2)[nH]1)C1CCCC1` [compound 403], the EC50 was less than 1 nM.

Turning to `CC[C@H](C)[C@H](NC(=O)OC)C(=O)N1CCC[C@H]1c1ncc(-c2ccc3cc(-c4cnc5nc([C@@H]6CCCN6C(=O)[C@@H](NC(=O)OC)[C@@H](C)CC)[nH]c5c4)ccc3c2)[nH]1` [compound 404], the EC50 is less than 1 nM.

For `CC[C@@H](C)[C@H](NC(=O)OC)C(=O)N1CCC[C@H]1c1ncc(-c2ccc3cc(-c4cnc5nc([C@@H]6CCCN6C(=O)[C@@H](NC(=O)OC)[C@H](C)CC)[nH]c5c4)ccc3c2)[nH]1` [compound 405], the EC50 was less than 1 nM.

For `COC(=O)N[C@H](C(=O)N1CCC[C@H]1c1ncc(-c2ccc3cc(-c4cnc5nc([C@@H]6CCCN6C(=O)[C@@H](NC(=O)OC)C6CC6)[nH]c5c4)ccc3c2)[nH]1)C1CC1` [compound 406], the EC50 is less than 1 nM.

`COC(=O)N[C@H](C(=O)N1CCC[C@H]1c1ncc(-c2ccc3cc(-c4cnc5nc([C@@H]6CCCN6C(=O)[C@@H](NC(=O)OC)C6CCCCC6)[nH]c5c4)ccc3c2)[nH]1)C1CCCCC1` [compound 409]: the EC50 was less than 1 nM.

Take `COC(=O)N[C@H](C(=O)N1CCC[C@H]1c1ncc(-c2ccc3cc(-c4cc5[nH]c([C@@H]6CCCN6C(=O)[C@@H](NC(=O)OC)C6CCCC6)nc5cn4)ccc3c2)[nH]1)C1CCCC1` [compound 411]: the EC50 was less than 1 nM.

As for `CC[C@H](C)[C@H](NC(=O)OC)C(=O)N1CCC[C@H]1c1ncc(-c2ccc3cc(-c4cc5[nH]c([C@@H]6CCCN6C(=O)[C@@H](NC(=O)OC)[C@@H](C)CC)nc5cn4)ccc3c2)[nH]1` [compound 412], the EC50 is less than 1 nM.

For `CC[C@@H](C)[C@H](NC(=O)OC)C(=O)N1CCC[C@H]1c1ncc(-c2ccc3cc(-c4cc5[nH]c([C@@H]6CCCN6C(=O)[C@@H](NC(=O)OC)[C@H](C)CC)nc5cn4)ccc3c2)[nH]1` [compound 413], the EC50 is less than 1 nM.

For `COC(=O)N[C@H](C(=O)N1CCC[C@H]1c1ncc(-c2ccc3cc(-c4cc5[nH]c([C@@H]6CCCN6C(=O)[C@@H](NC(=O)OC)C6CC6)nc5cn4)ccc3c2)[nH]1)C1CC1` [compound 414], the EC50 is less than 1 nM.

Regarding `COC(=O)N[C@H](C(=O)N1CCC[C@H]1c1ncc(-c2ccc3cc(-c4cc5[nH]c([C@@H]6CCCN6C(=O)[C@@H](NC(=O)OC)[C@@H](C)OC)nc5cn4)ccc3c2)[nH]1)[C@@H](C)OC` [compound 415], the EC50 was less than 1 nM.

In the case of `COC(=O)N[C@H](C(=O)N1CCC[C@H]1c1ncc(-c2ccc3cc(-c4cc5[nH]c([C@@H]6CCCN6C(=O)[C@@H](NC(=O)OC)C6CCCCC6)nc5cn4)ccc3c2)[nH]1)C1CCCCC1` [compound 417], the EC50 was less than 1 nM.
